Data: US20240208992A1, “MACROCYCLES AS CFTR MODULATORS” (Idorsia Pharmaceuticals Ltd, priority 2021, published 2024)

biological target: human F508del-CFTR (Homo sapiens, UniProt P13569, DEL508-508); assay: F508del-CFTR cell surface expression (corrector activity), DiscoveRx ß-galactosidase complementation chemiluminescence assay in recombinant U2OS cell line; details: EC50, F508del-CFTR cell surface expression, U2OS cell line, 16h compound incubation; geomean values;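 further: U2OS cells co-expressing ProLink-tagged F508del-CFTR and a membrane-anchored enzyme acceptor, where more surface CFTR restores β-galactosidase activity measured by chemiluminescence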
Sequence (P13569 with tags, fused parts or gaps DEL508-508): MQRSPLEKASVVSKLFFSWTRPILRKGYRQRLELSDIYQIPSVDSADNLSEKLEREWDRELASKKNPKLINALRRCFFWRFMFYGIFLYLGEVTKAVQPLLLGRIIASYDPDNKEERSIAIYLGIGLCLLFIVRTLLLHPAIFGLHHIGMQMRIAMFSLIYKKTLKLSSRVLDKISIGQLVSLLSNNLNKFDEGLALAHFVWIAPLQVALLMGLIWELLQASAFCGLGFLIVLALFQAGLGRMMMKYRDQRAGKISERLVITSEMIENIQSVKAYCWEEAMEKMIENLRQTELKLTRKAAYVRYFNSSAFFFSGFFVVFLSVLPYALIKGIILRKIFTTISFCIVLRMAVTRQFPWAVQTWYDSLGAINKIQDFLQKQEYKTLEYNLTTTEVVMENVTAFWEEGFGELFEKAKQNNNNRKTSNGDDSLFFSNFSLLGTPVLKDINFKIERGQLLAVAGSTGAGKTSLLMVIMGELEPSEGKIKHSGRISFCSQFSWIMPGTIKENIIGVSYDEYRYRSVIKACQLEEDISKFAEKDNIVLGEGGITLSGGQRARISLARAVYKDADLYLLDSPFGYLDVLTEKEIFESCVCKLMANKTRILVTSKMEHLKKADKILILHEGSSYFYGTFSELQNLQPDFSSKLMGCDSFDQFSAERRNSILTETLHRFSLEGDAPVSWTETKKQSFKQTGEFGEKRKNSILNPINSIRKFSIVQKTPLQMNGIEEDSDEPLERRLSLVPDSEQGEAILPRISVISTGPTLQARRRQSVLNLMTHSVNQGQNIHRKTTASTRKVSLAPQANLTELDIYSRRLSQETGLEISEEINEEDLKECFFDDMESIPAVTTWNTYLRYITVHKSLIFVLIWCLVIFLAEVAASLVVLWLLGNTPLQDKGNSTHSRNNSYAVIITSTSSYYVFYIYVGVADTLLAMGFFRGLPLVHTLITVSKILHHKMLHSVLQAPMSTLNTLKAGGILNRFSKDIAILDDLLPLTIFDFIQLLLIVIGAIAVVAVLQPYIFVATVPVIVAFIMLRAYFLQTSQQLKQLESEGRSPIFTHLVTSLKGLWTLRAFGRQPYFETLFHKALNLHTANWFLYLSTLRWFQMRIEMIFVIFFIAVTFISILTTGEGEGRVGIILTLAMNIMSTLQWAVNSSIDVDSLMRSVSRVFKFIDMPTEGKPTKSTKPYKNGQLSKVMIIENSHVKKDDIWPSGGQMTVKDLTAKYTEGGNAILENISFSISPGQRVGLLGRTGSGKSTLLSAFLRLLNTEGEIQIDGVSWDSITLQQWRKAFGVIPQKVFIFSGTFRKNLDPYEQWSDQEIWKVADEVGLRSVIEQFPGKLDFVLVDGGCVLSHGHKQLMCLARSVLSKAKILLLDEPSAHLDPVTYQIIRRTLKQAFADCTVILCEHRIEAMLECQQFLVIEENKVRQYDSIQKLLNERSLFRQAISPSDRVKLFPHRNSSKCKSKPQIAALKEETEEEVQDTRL

| SMILES | EC50 [µM] |
| --- | --- |
| COc1cccc2c1C(=O)N[C@H](C(=O)NCCc1ccc3c(c1)CCCO3)CC(=O)N(C)[C@@H](CC(C)C)C(=O)N(CCC1CCCCC1)CC(=O)N[C@H](Cc1ccccc1)CO2 (mixture of isomers) [Example 11, (3R,9S,13RS)-3-benzyl-N-(2-(chroman-6-yl)ethyl)-7-(2-cyclohexylethyl)-9-isobutyl-16-methoxy-10-methyl-5,8,11,15-tetraoxo-2,3,4,5,6,7,8,9,10,11,12,13,14,15-tetradecahydrobenzo[p][1]oxa[4,7,10,14]tetraazacycloheptadecine-13-carboxamide] | 0.182 |
| COc1cccc2c1C(=O)N[C@H](C(=O)NCCc1ccc3c(c1)OCCCO3)CC(=O)N(C)[C@@H](CC(C)C)C(=O)N(CCC1CCCCC1)CC(=O)N[C@H](Cc1ccccc1)CO2 (mixture of isomers) [Example 12, (3R,9S,13RS)-3-benzyl-7-(2-cyclohexylethyl)-N-(2-(3,4-dihydro-2H-benzo[b][1,4]dioxepin-7-yl)ethyl)-9-isobutyl-16-methoxy-10-methyl-5,8,11,15-tetraoxo-2,3,4,5,6,7,8,9,10,11,12,13,14,15-tetradecahydrobenzo[p][1]oxa[4,7,10,14]tetraazacycloheptadecine-13-carboxamide] | 0.27 |
| COc1cccc2c1C(=O)N[C@H](C(=O)NCCc1ccc3c(c1)OCC3)CC(=O)N(C)[C@@H](CC(C)C)C(=O)N(CCC1CCCCC1)CC(=O)N[C@H](Cc1ccccc1)CO2 (mixture of isomers) [Example 15, (3R,9S,13RS)-3-benzyl-7-(2-cyclohexylethyl)-N-(2-(2,3-dihydrobenzofuran-6-yl)ethyl)-9-isobutyl-16-methoxy-10-methyl-5,8,11,15-tetraoxo-2,3,4,5,6,7,8,9,10,11,12,13,14,15-tetradecahydrobenzo[p][1]oxa[4,7,10,14]tetraazacycloheptadecine-13-carboxamide] | 0.187 |
| COc1cccc2c1C(=O)N[C@H](C(=O)NCCc1nc3ccccc3o1)CC(=O)N(C)[C@@H](CC(C)C)C(=O)N(CCC1CCCCC1)CC(=O)N[C@H](Cc1ccccc1)CO2 (mixture of isomers) [Example 16, (3R,9S,13RS)-N-(2-(benzo[d]oxazol-2-yl)ethyl)-3-benzyl-7-(2-cyclohexylethyl)-9-isobutyl-16-methoxy-10-methyl-5,8,11,15-tetraoxo-2,3,4,5,6,7,8,9,10,11,12,13,14,15-tetradecahydrobenzo[p][1]oxa[4,7,10,14]tetraazacycloheptadecine-13-carboxamide] | 0.269 |
| Cc1csc(CCNC(=O)[C@@H]2CC(=O)N(C)[C@@H](CC(C)C)C(=O)N3CCCC[C@@H]3C(=O)N[C@H](Cc3ccccc3)COc3ccc4ncn(C)c4c3C(=O)N2)n1 (mixture of isomers) [Example 23, (8RS,12S,18aR,21R)-21-benzyl-12-isobutyl-5,11-dimethyl-N-(2-(4-methylthiazol-2-yl)ethyl)-6,10,13,19-tetraoxo-6,7,8,9,10,11,12,13,16,17,18,18a,19,20,21,22-hexadecahydro-5H,15H-imidazo[4′,5′:5,6]benzo[1,2-p]pyrido[2,1-f][1]oxa[4,7,10,14]tetraazacycloheptadecine-8-carboxamide] | 0.991 |
| CC(C)C[C@H]1C(=O)N2CCCC[C@@H]2C(=O)N[C@H](Cc2ccccc2)COc2ccc3ncn(C)c3c2C(=O)N[C@H](C(=O)NCCc2cccc(-n3nccn3)c2)CC(=O)N1C (mixture of isomers) [Example 28, (8RS,12S,18aR,21R)-N-(3-(2H-1,2,3-triazol-2-yl)phenethyl)-21-benzyl-12-isobutyl-5,11-dimethyl-6,10,13,19-tetraoxo-6,7,8,9,10,11,12,13,16,17,18,18a,19,20,21,22-hexadecahydro-5H,15H-imidazo[4′,5′:5,6]benzo[1,2-p]pyrido[2,1-f][1]oxa[4,7,10,14]tetraazacycloheptadecine-8-carboxamide] | 0.603 |
| COc1cccc(CCNC(=O)[C@@H]2CC(=O)N(C)[C@@H](CC(C)C)C(=O)N(C)CC(=O)N[C@H](Cc3ccccc3)COc3cc4c(cc3C(=O)N2)OCO4)c1OC (mixture of isomers) [Example 151, (7R,13S,17RS)-7-benzyl-N-(2,3-dimethoxyphenethyl)-13-isobutyl-11,14-dimethyl-9,12,15,19-tetraoxo-6,7,8,9,10,11,12,13,14,15,16,17,18,19-tetradecahydro-[1,3]dioxolo[4′,5′:4,5]benzo[1,2-p][1]oxa[4,7,10,14]tetraazacycloheptadecine-17-carboxamide] | 0.759 |
| COc1cc2c(cc1OC)C(=O)N[C@H](C(=O)NCCc1ccc3c(c1)CCO3)CC(=O)N(C)[C@@H](CC(C)C)C(=O)N(C)CC(=O)N[C@H](Cc1ccccc1)CO2 (mixture of isomers) [Example 152, (3R,9S,13RS)-3-benzyl-N-(2-(2,3-dihydrobenzofuran-5-yl)ethyl)-9-isobutyl-17,18-dimethoxy-7,10-dimethyl-5,8,11,15-tetraoxo-2,3,4,5,6,7,8,9,10,11,12,13,14,15-tetradecahydrobenzo[p][1]oxa[4,7,10,14]tetraazacycloheptadecine-13-carboxamide] | 0.668 |
| COc1cc2c(cc1OC)C(=O)N[C@H](C(=O)NCCc1ccc3c(c1)OCO3)CC(=O)N(C)[C@@H](CC(C)C)C(=O)N(CCC(C)(C)OC)CC(=O)N[C@H](Cc1ccccc1)CO2 (mixture of isomers) [Example 156, (3R,9S,13RS)-N-(2-(benzo[d][1,3]dioxol-5-yl)ethyl)-3-benzyl-9-isobutyl-17,18-dimethoxy-7-(3-methoxy-3-methylbutyl)-10-methyl-5,8,11,15-tetraoxo-2,3,4,5,6,7,8,9,10,11,12,13,14,15-tetradecahydrobenzo[p][1]oxa[4,7,10,14]tetraazacycloheptadecine-13-carboxamide] | 0.647 |
| CC(C)C[C@H]1C(=O)N(C[C@H]2CCCCO2)CC(=O)N[C@H](Cc2ccccc2)COc2ccc3ccccc3c2C(=O)N[C@H](C(=O)NCCc2ccc3c(c2)OCO3)CC(=O)N1C (mixture of isomers) [Example 162, (3RS,7S,13R)-N-(2-(benzo[d][1,3]dioxol-5-yl)ethyl)-13-benzyl-7-isobutyl-6-methyl-1,5,8,11-tetraoxo-9-(((R)-tetrahydro-2H-pyran-2-yl)methyl)-1,2,3,4,5,6,7,8,9,10,11,12,13,14-tetradecahydronaphtho[1,2-p][1]oxa[4,7,10,14]tetraazacycloheptadecine-3-carboxamide] | 0.472 |
| COc1cccc(CCNC(=O)[C@@H]2CC(=O)N(C)[C@@H](CC(C)C)C(=O)N(C[C@H]3CCCCO3)CC(=O)N[C@H](Cc3ccccc3)COc3ccc4ccccc4c3C(=O)N2)c1 (mixture of isomers) [Example 164, (3RS,7S,13R)-13-benzyl-7-isobutyl-N-(3-methoxyphenethyl)-6-methyl-1,5,8,11-tetraoxo-9-(((R)-tetrahydro-2H-pyran-2-yl)methyl)-1,2,3,4,5,6,7,8,9,10,11,12,13,14-tetradecahydronaphtho[1,2-p][1]oxa[4,7,10,14]tetraazacycloheptadecine-3-carboxamide] | 0.519 |
| COc1cccc2c1C(=O)N[C@H](C(=O)NCCc1ccc3c(c1)OCO3)CC(=O)N(C)[C@@H](CC1CC1)C(=O)N(CCC1CCCCC1)CC(=O)N[C@H](Cc1ccccc1)CO2 (mixture of isomers) [Example 274, (3R,9S,13RS)-N-(2-(benzo[d][1,3]dioxol-5-yl)ethyl)-3-benzyl-7-(2-cyclohexylethyl)-9-(cyclopropylmethyl)-16-methoxy-10-methyl-5,8,11,15-tetraoxo-2,3,4,5,6,7,8,9,10,11,12,13,14,15-tetradecahydrobenzo[p][1]oxa[4,7,10,14]tetraazacycloheptadecine-13-carboxamide] | 0.288 |
| CN1C(=O)C[C@@H](C(=O)NCCc2ccc3c(c2)OCO3)NC(=O)c2c(ccc3ccccc23)OC[C@@H](Cc2ccccc2)NC(=O)CN(C[C@@H]2CCCCO2)C(=O)[C@@H]1CC1CCCC1 (mixture of isomers) [Example 284, (3RS,7S,13R)-N-(2-(benzo[d][1,3]dioxol-5-yl)ethyl)-13-benzyl-7-(cyclopentylmethyl)-6-methyl-1,5,8,11-tetraoxo-9-(((S)-tetrahydro-2H-pyran-2-yl)methyl)-1,2,3,4,5,6,7,8,9,10,11,12,13,14-tetradecahydronaphtho[1,2-p][1]oxa[4,7,10,14]tetraazacycloheptadecine-3-carboxamide] | 0.337 |
| CN1C(=O)C[C@@H](C(=O)NCCc2ccc3c(c2)OCO3)NC(=O)c2c(ccc3ccccc23)OC[C@@H](Cc2ccccc2)NC(=O)CN(C[C@@H]2CCCCO2)C(=O)[C@@H]1CC1CCCCC1 (mixture of isomers) [Example 285, (3RS,7S,13R)-N-(2-(benzo[d][1,3]dioxol-5-yl)ethyl)-13-benzyl-7-(cyclohexylmethyl)-6-methyl-1,5,8,11-tetraoxo-9-(((S)-tetrahydro-2H-pyran-2-yl)methyl)-1,2,3,4,5,6,7,8,9,10,11,12,13,14-tetradecahydronaphtho[1,2-p][1]oxa[4,7,10,14]tetraazacycloheptadecine-3-carboxamide] | 0.239 |
| CN1C(=O)C[C@@H](C(=O)NCCc2ccc3c(c2)OCO3)NC(=O)c2c(ccc3ccccc23)OC[C@@H](Cc2ccccc2)NC(=O)CN(C[C@H]2CCCCO2)C(=O)[C@@H]1CC1CCCC1 (mixture of isomers) [Example 286, (3RS,7S,13R)-N-(2-(benzo[d][1,3]dioxol-5-yl)ethyl)-13-benzyl-7-(cyclopentylmethyl)-6-methyl-1,5,8,11-tetraoxo-9-(((R)-tetrahydro-2H-pyran-2-yl)methyl)-1,2,3,4,5,6,7,8,9,10,11,12,13,14-tetradecahydronaphtho[1,2-p][1]oxa[4,7,10,14]tetraazacycloheptadecine-3-carboxamide] | 0.177 |

same assay, conditions: U2OS, in relation to the Emax of the corrector lumacaftor (=100%); U2OS cell line, 16h compound incubation; arithmetic mean values

| SMILES | Emax [%] |
| --- | --- |
| COc1cc2c(cc1OC)C(=O)N[C@H](C(=O)NCCc1ccc3c(c1)OCO3)CC(=O)N(C)[C@@H](CC(C)C)C(=O)N(CCC(C)(C)OC)CC(=O)N[C@H](Cc1ccccc1)CO2 (mixture of isomers) [Example 156, (3R,9S,13RS)-N-(2-(benzo[d][1,3]dioxol-5-yl)ethyl)-3-benzyl-9-isobutyl-17,18-dimethoxy-7-(3-methoxy-3-methylbutyl)-10-methyl-5,8,11,15-tetraoxo-2,3,4,5,6,7,8,9,10,11,12,13,14,15-tetradecahydrobenzo[p][1]oxa[4,7,10,14]tetraazacycloheptadecine-13-carboxamide] | 123 |
| COc1cccc2c1C(=O)N[C@H](C(=O)NCCc1ccc3c(c1)OCO3)CC(=O)N(C)[C@@H](CC1CC1)C(=O)N(CCC1CCCCC1)CC(=O)N[C@H](Cc1ccccc1)CO2 (mixture of isomers) [Example 274, (3R,9S,13RS)-N-(2-(benzo[d][1,3]dioxol-5-yl)ethyl)-3-benzyl-7-(2-cyclohexylethyl)-9-(cyclopropylmethyl)-16-methoxy-10-methyl-5,8,11,15-tetraoxo-2,3,4,5,6,7,8,9,10,11,12,13,14,15-tetradecahydrobenzo[p][1]oxa[4,7,10,14]tetraazacycloheptadecine-13-carboxamide] | 186 |
